For the assay, the system named is Lipopolysaccharide (LPS). In words: Displacement of BODIPY-TR cadaverine from Escherichia coli O111:B4 LPS measured for 100 sec by spectrofluorometry.

H-LWKKIYRKWKRW-NH2: the Activity entry was “Dose-dependent effect”.

Source of the values: ChEMBL document CHEMBL4765389, “Antimicrobial and anti-inflammatory activities of short dodecapeptides derived from duck cathelicidin: Plausible mechanism of bactericidal action and endotoxin neutralization” (Eur J Med Chem, 2020).
